Literature values, collected in patent publication US20240136011A1, “SYSTEM, METHOD, AND COMPUTER PROGRAM FOR PHYSICS-BASED BINDING AFFINITY ESTIMATION” (BOARD OF TRUSTEES OF THE UNIVERSITY OF ARKANSAS, priority 2022, published 2024).

Biological target: human fibroblast growth factor 1 (hFGF1) (Homo sapiens, UniProt P05230)
Details: MM-GBSA; recent computational studies

human fibroblast growth factor 1 (hFGF1), sequence (P05230 whole entry): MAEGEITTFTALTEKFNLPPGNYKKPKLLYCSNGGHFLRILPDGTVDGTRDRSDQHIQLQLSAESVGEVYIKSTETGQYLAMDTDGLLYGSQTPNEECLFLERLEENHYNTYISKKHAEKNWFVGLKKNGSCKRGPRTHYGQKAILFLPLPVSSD

ΔG°: -397 ± 46 kJ/mol
Substance: heparin hexasaccharide
